Measured values published in the supplement of paper PMC8617591.

Assays:
[1] = system: Mycobacterium tuberculosis Erdman (autoluminescent); assay: total FIC50 (Loewe) at 50% inhibition, three-drug combination (log2); higher = more antagonistic
Description: (§1)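 DiaMOND equipotent three-drug combination dose responses (10 doses, 1.5- or 2-fold spacing, centred on IC90) against autoluminescent M. tuberculosis Erdman in 8 in vitro models. Read-out is OD600, or luminescence for the intracellular and dormancy models, normalised to untreated wells. Hill-fit Einf, AUC25 and GRinf are potency metrics; FIC50 and FIC90 are total Loewe fractional inhibitory concentrations as log2 (negative = synergy).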

[2] = system: Mycobacterium tuberculosis Erdman (autoluminescent); assay: total FIC90 (Loewe) at 90% inhibition, three-drug combination (log2); higher = more antagonistic
Description: as §1

[3] = system: Mycobacterium tuberculosis Erdman (autoluminescent); assay: Einf, fitted maximum growth inhibition of three-drug combination (fraction); higher = stronger maximal inhibition
Description: as §1

[4] = system: Mycobacterium tuberculosis Erdman (autoluminescent); assay: AUC25, normalised area under dose response up to IC25 (three-drug combination) (fraction (0-1)); higher = more potent at low dose
Description: as §1

[5] = system: Mycobacterium tuberculosis Erdman (autoluminescent); assay: GRinf, maximum normalised growth rate inhibition (three-drug combination) (unitless (-1 to 1)); higher = less effect (negative = killing)
Description: as §1

CC(=O)NC[C@H]1CN(c2ccc(N3CCOCC3)c(F)c2)C(=O)O1 [linezolid] + CO[C@H]1/C=C/O[C@@]2(C)Oc3c(C)c(O)c4c(O)c(c(/C=N/N5CCN(C6CCCC6)CC5)c(O)c4c3C2=O)NC(=O)/C(C)=C\C=C\[C@H](C)[C@H](O)[C@@H](C)[C@@H](O)[C@@H](C)[C@H](OC(C)=O)[C@@H]1C [rifapentine] + CO[C@H]1/C=C/O[C@@]2(C)Oc3c(C)c(O)c4c(O)c(c(/C=N/N5CCN(C)CC5)c(O)c4c3C2=O)NC(=O)/C(C)=C\C=C\[C@H](C)[C@H](O)[C@@H](C)[C@@H](O)[C@@H](C)[C@H](OC(C)=O)[C@@H]1C [rifampicin]
Settings | AUC25, [4] | Einf, [3] | GRinf, [5] | total FIC50, [1] | total FIC90, [2]
in vitro model: acidic pH 5.7, time point: constant (~7 days, model-specific) | 0.0833 | 0.893 | -0.162 | 0.407 | –
in vitro model: acidic pH 5.7, time point: terminal (~4-5 doublings, model-specific) | 0.0709 | 0.979 | -0.204 | 0.327 | 0.0907
in vitro model: intracellular J774, time point: constant = terminal | – | 0.93 | -0.12 | – | -0.258

Settings | AUC25, [4] | Einf, [3] | GRinf, [5] | total FIC50, [1] | total FIC90, [2]
in vitro model: butyrate, time point: constant (~7 days, model-specific) | 0.0767 | 0.869 | 0.14 | 0.125 | –
in vitro model: butyrate, time point: terminal (~4-5 doublings, model-specific) | 0.0594 | 0.933 | 0.106 | 0.0289 | -0.462
in vitro model: cholesterol 0.05 mM, time point: constant (~7 days, model-specific) | 0.147 | 0.654 | -0.259 | 0.106 | –
in vitro model: cholesterol 0.05 mM, time point: terminal (~4-5 doublings, model-specific) | 0.127 | 0.909 | -0.305 | -0.0658 | 0.0643
in vitro model: cholesterol-high 0.2 mM, time point: constant (~7 days, model-specific) | 0.104 | 0.934 | -0.348 | 0.114 | 0.179
in vitro model: cholesterol-high 0.2 mM, time point: terminal (~4-5 doublings, model-specific) | 0.0979 | 1 | -0.881 | 0.344 | 0.213
in vitro model: dormancy (butyrate + nitrate, low O2), time point: constant (~7 days, model-specific) | 0.0711 | 0.884 | 0.158 | 0.564 | 0.837
in vitro model: dormancy (butyrate + nitrate, low O2), time point: terminal (~4-5 doublings, model-specific) | 0.0539 | 0.965 | -0.00168 | -0.00521 | 0.318
in vitro model: standard 7H9 glycerol, time point: constant = terminal | 0.0512 | 0.879 | 0.155 | 0.208 | –
in vitro model: valerate, time point: constant (~7 days, model-specific) | 0.0508 | 0.862 | 0.0506 | 0.124 | –
in vitro model: valerate, time point: terminal (~4-5 doublings, model-specific) | 0.029 | 0.933 | 0.0203 | 0.039 | -0.378

CC(=O)NC[C@H]1CN(c2ccc(N3CCOCC3)c(F)c2)C(=O)O1 [linezolid] + COc1c(N2C[C@@H]3CCCN[C@@H]3C2)c(F)cc2c(=O)c(C(=O)O)cn(C3CC3)c12 [moxifloxacin] + CO[C@H]1/C=C/O[C@@]2(C)Oc3c(C)c(O)c4c(O)c(c(/C=N/N5CCN(C6CCCC6)CC5)c(O)c4c3C2=O)NC(=O)/C(C)=C\C=C\[C@H](C)[C@H](O)[C@@H](C)[C@@H](O)[C@@H](C)[C@H](OC(C)=O)[C@@H]1C [rifapentine]
Settings | AUC25, [4] | Einf, [3] | GRinf, [5] | total FIC50, [1] | total FIC90, [2]
in vitro model: acidic pH 5.7, time point: constant (~7 days, model-specific) | 0.0572 | 0.8 | 0.0276 | 0.827 | –
in vitro model: acidic pH 5.7, time point: terminal (~4-5 doublings, model-specific) | 0.0558 | 0.976 | -0.0724 | 0.952 | 0.684
in vitro model: intracellular J774, time point: constant = terminal | – | 0.911 | -0.0811 | – | 0.0429

Settings | AUC25, [4] | Einf, [3] | GRinf, [5] | total FIC50, [1] | total FIC90, [2]
in vitro model: butyrate, time point: constant (~7 days, model-specific) | 0.0841 | 0.876 | 0.149 | 0.365 | 0.691
in vitro model: butyrate, time point: terminal (~4-5 doublings, model-specific) | 0.0527 | 0.929 | 0.0958 | 0.352 | 0.196
in vitro model: cholesterol 0.05 mM, time point: constant (~7 days, model-specific) | 0.157 | 0.694 | -0.35 | 0.586 | –
in vitro model: cholesterol 0.05 mM, time point: terminal (~4-5 doublings, model-specific) | 0.129 | 0.909 | -0.32 | 0.581 | -0.237
in vitro model: cholesterol-high 0.2 mM, time point: constant (~7 days, model-specific) | 0.11 | 0.913 | -0.639 | 0.553 | 0.386
in vitro model: cholesterol-high 0.2 mM, time point: terminal (~4-5 doublings, model-specific) | 0.113 | 1 | -0.938 | 0.377 | 0.836
in vitro model: dormancy (butyrate + nitrate, low O2), time point: constant (~7 days, model-specific) | 0.0602 | 0.862 | 0.223 | 1.04 | 0.925
in vitro model: dormancy (butyrate + nitrate, low O2), time point: terminal (~4-5 doublings, model-specific) | 0.0346 | 0.979 | -0.11 | 1.31 | 1.02
in vitro model: standard 7H9 glycerol, time point: constant = terminal | 0.0607 | 0.902 | 0.0317 | 0.709 | 0.569
in vitro model: valerate, time point: constant (~7 days, model-specific) | 0.109 | 0.834 | 0.129 | 0.0907 | –
in vitro model: valerate, time point: terminal (~4-5 doublings, model-specific) | 0.0452 | 0.914 | 0.0886 | 0.472 | 0.387
